Experimental data as given in paper PMC8686763, “Pre-Steady-State Kinetics of the SARS-CoV-2 Main Protease as a Powerful Tool for Antiviral Drug Discovery” (Frontiers in Pharmacology, 2021).

Key:
C145A M^pro [1] = molecular target: T1, C145A M^pro (Severe acute respiratory syndrome coronavirus 2, UniProt P0DTD1, C3408A); type: binding, SARS-CoV-2
C145A M^pro [2] = molecular target: T1, C145A M^pro; type: binding, SARS-CoV-2; remark: listed apart in the source

COc1cccc2[nH]c(C(=O)N[C@@H](CC(C)C)C(=O)N[C@@H](C[C@@H]3CCNC3=O)C(=O)CO)cc12 [PF-00835231]
K 1 (= k 1/k −1) (C145A M^pro [1]): 0.30 ± 0.02 M⁻¹ | K 2 (= k 2/k −2) (C145A M^pro [1]): 0.35 ± 0.09 | formation of the initial complex (k 1) faster for C145A M^pro than WT (C145A M^pro [1]): approximately 20 fold | k 1 (C145A M^pro [1]): (6.6 ± 0.2)×10^6 M^−1×s^−1 | k 2 (C145A M^pro [1]): 1.0 ± 0.2 s⁻¹ | k -1 (C145A M^pro [1]): 22 ± 0.2 s⁻¹ | k -2 (C145A M^pro [1]): 2.8 ± 0.2 s⁻¹ | change in Tm (C145A M^pro [2]): ~2.2 °C
